Test results taken from patent US20240090503A1, “FUNGICIDAL OXADIAZOLES AND THEIR MIXTURES” (FMC CORPORATION, priority 2020, published 2024).
Marks after values point to notes of the source that are not given here.

Legend:
Assay type in all cases: in vivo
[1] = test system: Puccinia recondita f. sp. tritici (the causal agent of wheat leaf rust); experiment: Test C: preventive spray on wheat seedlings, wheat leaf rust, visual disease rating; conditions: wheat seedlings
In short: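 Wheat seedlings sprayed to run-off with compound in acetone/water (50/50) with 250 ppm PEG400, then inoculated with spores the following day. After 24 h saturated humidity at 20° C. and 6 days in growth chamber at 20° C., disease rated visually as % control relative to untreated controls.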

[2] = test system: Phakopsora pachyrhizi (the causal agent of Asian soybean rust); experiment: Test A: preventive spray on soybean seedlings, Asian soybean rust, visual disease rating; conditions: soybean seedlings
In short: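 Preventive test: soybean seedlings received a run-off spray of compound suspended at the set ppm in 50/50 acetone/water plus 250 ppm PEG400, and one day later a P. pachyrhizi spore inoculum. Visual scoring (0 none to 100 full disease control) followed 24 h saturated incubation and 8 days' growth chamber, both at 22° C.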

[3] = test system: Zymoseptoria tritici (the causal agent of wheat leaf blotch); experiment: Test B: preventive spray on wheat seedlings, wheat leaf blotch, visual disease rating; conditions: wheat seedlings
In short: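 This is a preventive test: spray application preceded Zymoseptoria tritici spore inoculation by one day. Test suspensions were in acetone/water with 250 ppm PEG400 surfactant, at the listed ppm rate. After 48 h saturated humidity at 24° C and 17 days at 20° C, visual ratings scored control from 0 to 100%.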

[4] = test suspension 10 ppm, 100 = 100% disease control, 0 = no control
[5] = 10 ppm test suspension, 100 = 100% disease control, 0 = no control
[6] = 250 ppm test suspension, 100 = 100% disease control
[7] = 250 ppm test suspension, 100 = 100% disease control, 0 = no control

FC(F)(F)c1nc(-c2ccc(OCc3nc4ncccc4o3)cc2)no1 [compound 320]
Test C disease control rating ([1]; test suspension 10 ppm): 0%
Test A disease control rating [2, 4]: 97%
Test B disease control rating ([3]; test suspension 250 ppm): 33* %

O=C(NCCCC(F)(F)F)c1coc(Cc2ccc(-c3noc(C(F)(F)F)n3)cc2)n1 [compound 398]
Test C disease control rating [1, 5]: 97%
Test A disease control rating [2, 5]: 100%
Test B disease control rating [3, 6]: 80* %

O=C(c1coc(Cc2ccc(-c3noc(C(F)(F)F)n3)cc2)n1)N1CCC1 [compound 261]
Test C disease control rating ([1]; test suspension 10 ppm): 99%
Test A disease control rating [2, 4]: 100%
Test B disease control rating ([3]; test suspension 250 ppm): 88* %

CCOC(=O)c1csc(COc2ccc(-c3noc(C(F)(F)F)n3)cc2)n1 [compound 404]
Test C disease control rating [1, 5]: 68%
Test A disease control rating [2, 5]: 0%
Test B disease control rating [3, 6]: 0* %

CCOC(=O)c1ccn(Cc2ccc(-c3noc(C(F)(F)F)n3)cc2)n1 [compound 114]
Test C disease control rating ([1]; test suspension 250 ppm): 100%
Test A disease control rating ([2]; test suspension 250 ppm): 100%
Test B disease control rating ([3]; test suspension 250 ppm): 0%

COC(=O)c1cc(COc2ccc(-c3noc(C(F)(F)F)n3)cc2)on1 [compound 312]
Test C disease control rating ([1]; test suspension 10 ppm): 0%
Test A disease control rating [2, 4]: 0%
Test B disease control rating ([3]; test suspension 250 ppm): 0* %

CCOC(=O)c1cnn(C(C)c2ccc(-c3noc(C(F)(F)F)n3)s2)c1 (stereo not drawn) [Compound 192]
Test C disease control rating ([1]; test suspension 10 ppm): 100%
Test A disease control rating [2, 4]: 100%
Test B disease control rating ([3]; test suspension 250 ppm): 99* %

COC(=O)c1coc(Cc2ccc(-c3noc(C(F)(F)F)n3)cc2)n1 [Compound 490]
Test C disease control rating [1, 5]: 74%
Test A disease control rating [2, 5]: 100%
Test B disease control rating [3, 6]: 94* %

O=C(NCC(F)(F)F)c1csc(COc2ccc(-c3noc(C(F)(F)F)n3)cc2)n1 [compound 470]
Test C disease control rating [1, 5]: 94%
Test A disease control rating [2, 5]: 100%
Test B disease control rating [3, 6]: 0* %

O=S1(=O)CCCCN1Cc1ccc(-c2noc(C(F)(F)F)n2)s1 [compound 323]
Test C disease control rating ([1]; test suspension 250 ppm): 100%
Test A disease control rating ([2]; test suspension 250 ppm): 100%
Test B disease control rating ([3]; test suspension 250 ppm): 92* %

N#Cc1coc(Cc2ccc(-c3noc(C(F)(F)F)n3)cc2)n1 [compound 256]
Test C disease control rating ([1]; test suspension 10 ppm): 99%
Test A disease control rating [2, 4]: 100%
Test B disease control rating ([3]; test suspension 250 ppm): 98* %

N#CCNC(=O)c1coc(COc2ccc(-c3noc(C(F)(F)F)n3)cc2)n1 [compound 468]
Test C disease control rating [1, 5]: 0%
Test A disease control rating [2, 5]: 84%
Test B disease control rating [3, 6]: 22* %

CN(C)C(=O)c1cc(COc2ccc(-c3noc(C(F)(F)F)n3)cc2)on1 [compound 314]
Test C disease control rating ([1]; test suspension 10 ppm): 0%
Test A disease control rating [2, 4]: 99%
Test B disease control rating ([3]; test suspension 250 ppm): 86* %

OC(c1ccc(F)cc1)c1ccc(-c2noc(C(F)(F)F)n2)cc1 (stereo not drawn) [compound 500]
Test C disease control rating [1, 7]: 100%
Test A disease control rating [2, 7]: 100%
Test B disease control rating [3, 6]: 5* %

CCCOC(=O)c1cnn(Cc2ccc(-c3noc(C(F)(F)F)n3)s2)c1 [Compound 198, propyl 1-[[5-[5-(trifluoromethyl)-1,2,4-oxadiazol-3-yl]-2-thienyl]methyl]-1H-pyrazole-4-carboxylate]
pest or weed control at 10 µg/mL ([1]; Puccinia recondita, 168 h, test suspension 10 ppm, read-out: Test C disease control rating): 99%
pest or weed control at 10 µg/mL ([2]; Phakopsora pachyrhizi, 216 h, test suspension 10 ppm, 100 = 100% disease control, 0 = no control, read-out: Test A disease control rating): 100%
pest or weed control at 100 µg/mL ([3]; Zymoseptoria tritici, 456 h, test suspension 100 ppm (** next to rating), read-out: Test B disease control rating): 94%

Cn1ccc(CNC(=O)c2coc(Cc3ccc(-c4noc(C(F)(F)F)n4)cc3)n2)n1 [compound 265]
Test C disease control rating ([1]; test suspension 10 ppm): 100%
Test A disease control rating [2, 4]: 100%
Test B disease control rating ([3]; test suspension 250 ppm): 93* %

O=C1COCCN1Cc1ccc(-c2noc(C(F)(F)F)n2)s1 [compound 325]
Test C disease control rating ([1]; test suspension 250 ppm): 100%
Test A disease control rating ([2]; test suspension 250 ppm): 100%
Test B disease control rating ([3]; test suspension 250 ppm): 36* %

COCCNC(=O)c1cccc(Cc2ccc(-c3noc(C(F)(F)F)n3)cc2)c1 [compound 284]
Test C disease control rating ([1]; test suspension 10 ppm): 100%
Test A disease control rating [2, 4]: 100%
Test B disease control rating ([3]; test suspension 250 ppm): 91* %

O=C1C(=O)N(Cc2ccc(-c3noc(C(F)(F)F)n3)cc2)c2ccccc21 [compound 87]
Test C disease control rating ([1]; test suspension 250 ppm): 100%
Test A disease control rating ([2]; test suspension 250 ppm): 100%
Test B disease control rating ([3]; test suspension 250 ppm): 82%
